Assay results as given in patent US20260263613A1, “USE OF DRUG C[…]-CD20 ANTIBODY-DRUG CONJUGATE IN PREPARATION OF DRUG FOR TREATING NHL” (priority 2023, published 2026).
“And” between values parts separate entries of the source, which are not always exact repeats. Equal values may be shown once.

Key:
[1] = Body weight and drug-related deaths of OCI-LY19 tumor-bearing animals; type: in vivo, mouse
Protocol: (§1) The drug information is the same as in Embodiment 3. Under sterile conditions, each mouse was inoculated with 0.1 mL of OCI-LY19 cell suspension at a concentration of 2×10^6/mL subcutaneously on the right back. When the mean TV reached ~150 mm^3, animals were randomized into 4 groups according to their TV: Group 1 (Vehicle), Group 2 (R-CHOP), Group 3 (TRS005) and Group 4 (T-CHP), with 10 mice in each group, so that the difference in TV of mice in each group was <10% of the mean. The day of grouping was recorded as Day 0, and the administration was started according to animal BW.
(§2) The BW and TV of animals were measured twice a week during the study. During the study, the clinical symptoms of animals were observed and recorded once a day. Clinical observations included general health status, abnormal BW and behavior of animals, and other treatment-related adverse reactions. During the study, if an individual experimental animal meets any of the following conditions, the animal will be removed from the study group and euthanized. 1. The body weight loss (BWL) of animals was ≥20% compared with Day 0; 2. Animals had serious adverse reactions, such as blindness and paralysis; 3. TV was >2000 mm^3; 4. Open ulcers were formed on the tumor surface.
(§3) The animal body weight change (% BWC) is calculated as follows: (BWt−BW0)/BW0×100%, where BWt is the animal BW at each measurement and BW0 is the animal BW at grouping.

[2] = tested on: human lymphoma WSU-DLCL2 cell xenograft tumor; assay: Inhibition of human lymphoma WSU-DLCL2 cell xenograft tumor growth; type: in vivo, SCID mouse
Protocol: Example 3: Inhibition of Human Lymphoma WSU-DLCL2 Cell Xenograft Tumor Growth by TRS005 Alone and TRS005 in Combination with CHP Compared to R-CHOP Regimen Administration Drug Information, Model Establishment, Grouping, and Administration
The TRS005 finished product is provided by Zhejiang Teruisi Pharmaceutical Inc., and other positive drugs are commercially available. Among them, MabThera, Cyclophosphamide, Doxorubicin, Vincristine, and Prednisone are prepared with normal saline as the solvent to corresponding concentrations and stored at 4° C. away from light. The TRS005 finished product is reconstituted with sterile water for injection (WFI), and a corresponding volume of normal saline is added to prepare the corresponding concentration. The TRS005 finished product is reconstituted and packaged with WFI and stored at −70° C.
(§4) Under sterile conditions, each SCID mouse was inoculated with 0.1 mL of WSU-DLCL2 cell suspension at a concentration of 4×10^7/mL subcutaneously on the right back. When the mean tumor volume (TV) reached ~150 mm^3, animals were randomized into 4 groups according to their TV: Group 1 (Vehicle), Group 2 (R-CHOP), Group 3 (TRS005) and Group 4 (TRS005-CHP (T-CHP)), with 6 mice in each group, so that the difference in TV of mice in each group was <10% of the mean. The day of grouping was recorded as Day 0, and the administration was started according to animal body weight (BW).
(§5) The BW and TV of animals were measured twice a week during the study. During the study, the clinical symptoms of animals were observed and recorded once a day. Clinical observations included general health status, abnormal BW and behavior of animals, and other treatment-related adverse reactions.
(§6) The tumor growth inhibition rate (% TGI) is calculated as follows: (1−TVT/TVC)×100%, where TVC is the mean TV of the negative control group, and TVT is the mean TV of the treatment group.
(§7) Relative Tumor Volume (RTV) is calculated as Vt/V0, where V0 is the TV at grouping and Vt is the TV at each measurement.
(§8) The calculation formula for relative tumor proliferation rate (% T/CRTV) is: • TRTV/CRTV×100%, where TRTV is the RTV of the treatment group and CRTV is the RTV of the negative control group.
(§9) According to the Technical Guidelines for Nonclinical Study of Cytotoxic Anti-tumor Drugs (November 2006) issued by NMPA in China, it is considered effective if % T/CRTV≤40% and P<0.05 after statistical analysis. Drug doses are considered to be severely toxic when the number of animal deaths related to the drug exceeds 20%.

[3] = tested on: human lymphoma OCI-LY19 cell xenograft tumors; assay: Growth inhibition of human lymphoma OCI-LY19 cell xenograft tumors; type: in vivo, mouse
Protocol: Embodiment 4: Growth Inhibition of Human Lymphoma OCI-LY19 Cell Xenograft Tumors by TRS005 Alone and TRS005 in Combination with CHP Compared to R-CHOP Regimen Administration
as §1, §2
The calculation formula for TV is: ½×a×b^2, where a and b are the measured length and width of the tumor, respectively.
as §6, §7, §8

[4] = Body weight and drug-related deaths of WSU-DLCL2 tumor-bearing animals; type: in vivo, SCID mouse
Protocol: as §4, §5, §3, §9

TRS005: anti-CD20 ADC; mAb is Rituximab or a biosimilar thereof, drug antibody ratio (DAR) 4.2±0.5
Body Weight of Mice (Mean ± SEM) Day 0 ([1]; Day 0 (baseline)): 20.95 ± 0.36 g | Body Weight of Mice (Mean ± SEM) Day 14 ([1]; Day 14): 22.76 ± 0.45 g | % BWC Day 14 vs Day 0 ([1]; OCI-LY19 tumor-bearing mice): 8.96% | Body weight change Day 14 vs Day 0 (in g) ([1]; OCI-LY19 tumor-bearing mice): (1.81 g) | Safety / drug-related toxicity in words ([1]; OCI-LY19 tumor-bearing mice, during the study): good safety | Number of Mice with Drug-related Deaths Day 14 ([1]; deaths/number of mice): 0/10 | Anti-tumor efficacy in words ([2]; WSU-DLCL2 xenograft (high CD20 expression), compared with the other regimens): better efficacy than the R-CHOP regimen | Tumor Volume (Mean ± SEM) Day 0 ([2]; WSU-DLCL2 xenograft, Day 0 (at grouping, before dosing), 6 mice/group): 127.16 mm^3 | % T/CRTV Day 35 ([2]; WSU-DLCL2 xenograft, Day 35): 17.81% | RTV Day 35 ([2]; WSU-DLCL2 xenograft, Day 35, Vt/V0): 2.44 | Tumor Volume (Mean ± SEM) Day 35 ([2]; WSU-DLCL2 xenograft, Day 35, TRS005 0.75 mg/kg IV BIW × 3 w, regimens per Table 2, 0.75 mg/kg): 315.93±94.23 mm^3 and 315.93 mm^3 | % TGI Day 35 ([2]; WSU-DLCL2 xenograft, Day 35, regimens per Table 2): 81.94% | Tumor Volume (Mean ± SEM) Day 0 ([3]; Day 0 (at grouping, before dosing), 10 mice/group): 107.78 mm^3 | % T/CRTV Day 14 ([3]; Day 14): 48.28% | % TGI Day 14 ([3]; Day 14): 51.87% | Tumor Volume (Mean ± SEM) Day 14 ([3]; Day 14, TRS005 1.5 mg/kg IV BIW × 3 w, regimens per Table 5, 1.5 mg/kg): 905.30±129.66 mm^3 and 905.30 mm^3 | RTV Day 14 ([3]; Day 14, Vt/V0): 8.29 | Tumor Volume (Mean ± SEM) Day 17 ([3]; Day 17): 1182.02 mm^3 | Tumor Volume (Mean ± SEM) Day 21 ([3]; Day 21, remaining mice (Group 3 N = 9)): 1764.32 mm^3 | Tumor Volume (Mean ± SEM) Day 24 ([3]; Day 24, remaining mice (Group 3 N = 6)): 2274.64 mm^3 | Tumor Volume (Mean ± SEM) Day 28 ([3]; Day 28, remaining mice (Group 2 N = 3, Group 3 N = 1, Group 4 N = 9)): 0.00 mm^3 | Body Weight of Mice (Mean ± SEM) Day 0 ([4]; Day 0 (baseline)): 20.12 ± 0.35 g | Body Weight of Mice (Mean ± SEM) Day 35 ([4]; Day 35): 20.78 ± 0.50 g | % BWC Day 35 vs Day 0 ([4]; WSU-DLCL2 tumor-bearing mice): 3.25% | Body weight change Day 35 vs Day 0 ([4]; WSU-DLCL2 tumor-bearing mice): 0.66 g | Safety / drug-related toxicity in words ([4]; WSU-DLCL2 tumor-bearing mice, during the study): good safety | Number of Mice with Drug-related Deaths Day 35 ([4]; deaths/number of mice): 0/6
